According to BindingDB's records for doi:10.1021/acs.jmedchem.8b00170 (The University of Queensland, 2018):

Biological target: Melanocortin receptor 5 (Homo sapiens, UniProt P33032)
Experiment: Displacement of [125I]-NDP-alpha-MSH from human MC5R LBD expressed in HEK293 cell membranes incubated for 16 to 23 hrs in dark by scintillation proximity assay

Chain of Melanocortin receptor 5 (P33032 whole entry, the tested form may be a part): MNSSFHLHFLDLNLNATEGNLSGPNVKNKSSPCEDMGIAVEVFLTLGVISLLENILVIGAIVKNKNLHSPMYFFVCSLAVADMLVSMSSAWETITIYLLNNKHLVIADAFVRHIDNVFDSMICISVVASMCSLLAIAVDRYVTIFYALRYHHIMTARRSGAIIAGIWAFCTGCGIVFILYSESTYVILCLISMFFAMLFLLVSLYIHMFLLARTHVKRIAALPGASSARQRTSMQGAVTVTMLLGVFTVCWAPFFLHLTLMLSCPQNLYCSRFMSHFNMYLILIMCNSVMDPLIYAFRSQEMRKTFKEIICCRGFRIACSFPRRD

CC[C@H](C)[C@@H]1NC(=O)[C@@H]2CCCN2C(=O)[C@@H]2CCCN2C(=O)[C@H]([C@@H](C)CC)NC(=O)[C@H](CO)NC(=O)[C@H](C)NC(=O)[C@H]([C@@H](C)O)NC(=O)[C@@H]2CSSC[C@H](NC1=O)C(=O)N[C@@H](Cc1c[nH]cn1)C(=O)N[C@H](Cc1ccccc1)C(=O)N(C)[C@@H](CCCNC(=N)N)C(=O)N(C)[C@@H](Cc1c[nH]c3ccccc13)C(=O)N[C@@H](CCCNC(=N)N)C(=O)N2
IC50: 813 nM
